Laboratory results reported in patent US20030129629A1, “Methods and compositions for the identification, assessment, prevention, and therapy of human cancers” (Millennium Pharmaceuticals, Inc., priority 2000, published 2003).
Where two headings read alike, the source gives them in different places.

Assays:
[1] = tested on: 60 cancer cell lines (NCI 60 cancer cell line series); settings: cited from earlier work
[2] = tested on: 60 cancer cell lines (NCI 60 cancer cell line series); assay: NCI-DTP in vitro cancer screen, sulforhodamine B (SRB) growth inhibition, 48 hour exposure; format: cell-based, human
Procedure, shortened: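 Potency is given as mean −log{GI50} from dose–response curves, manually binned into Low, Medium or High sensitivity. Sixty NCI-DTP tumour lines were treated 48 h with a duplicate, five-dose, ten-fold dilution series, and growth read by SRB staining of cell mass.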

For `O=c1[nH]cc(F)c(=O)[nH]1` [5-Fluorouracil], the “−Log (GI50)” value ([1]; Melanoma SK-MEL-2 CL10005) is given as 3.3, the “−Log (GI50)” value ([1]; Melanoma SK-MEL-5 CL10007) is given as 4.9 and the “−Log (GI50)” value ([1]; Melanoma SK-MEL-28 CL10008) is given as 4.5. The “−Log (GI50)” value ([1]; Melanoma UACC-62 CL10020) was 4.9, the “−Log (GI50)” value ([1]; Melanoma UACC-257 CL10021) was 3.9 and the “−Log (GI50)” value ([1]; NSCLC A549/ATCC CL1004) was 5.7. For the same molecule, the “−Log (GI50)” value ([1]; NSCLC EKVX CL1008) was 3.3, the “−Log (GI50)” value ([1]; NSCLC HOP-62 CL1026) was 4.8 and the “−Log (GI50)” value ([1]; NSCLC HOP-92 CL1029) was 4.0. For the same molecule, the “−Log (GI50)” value ([1]; NSCLC NCI-H226 CL1013) was 3.6, the “classification of cell line as Low(1), Medium(2), High(3) sensitivity to compound” value (shortened to “classification of cell line”) ([2]; Breast BT-549 CL5013) was 1 and the “classification of cell line” value ([2]; Breast HS-578T CL5006) was 1. The “classification of cell line” value ([2]; Breast MCF7(I) CL5001) was 3, the “classification of cell line” value ([2]; Breast MCF7/ADRr CL5002) was 2 and the “classification of cell line” value ([2]; Breast MDA-MB-231 CL5005) was 1. The “classification of cell line” value ([2]; Breast MDA-MB-435 CL5011) was 2, the “classification of cell line” value ([2]; Breast MDA-N CL5012) was 2 and the “classification of cell line” value ([2]; Breast T-47D CL5014) was 2. For the same molecule, the “classification of cell line” value ([2]; CNS SF-268 CL12014) was 2, the “classification of cell line” value ([2]; CNS SF-295 CL12015) was 2 and the “classification of cell line” value ([2]; CNS SF-539 CL12016) was 3. The “classification of cell line” value ([2]; CNS SNB-19 CL12002) was 1, the “classification of cell line” value ([2]; CNS SNB-75(I) CL12005) was 1 and the “classification of cell line” value ([2]; CNS U251(I) CL12009) was 2. For the same molecule, the “classification of cell line” value ([2]; Colon COLO-250 CL4010) was 2, the “classification of cell line” value ([2]; Colon HCC-2998 CL4002) was 3 and the “classification of cell line” value ([2]; Colon HCT-15 CL4015) was 2. For the same molecule, the “classification of cell line” value ([2]; Colon HCT-116 CL4003) was 3, the “classification of cell line” value ([2]; Colon HT29(I) CL4001) was 2 and the “classification of cell line” value ([2]; Colon KM12 CL4017) was 2. For the same molecule, the “classification of cell line” value ([2]; Colon SW-620 CL4009) was 2, the “classification of cell line” value ([2]; Leukemia CCRF-CEM(I) CL7003) was 2 and the “classification of cell line” value ([2]; Leukemia HL-60(I) CL7008) was 2. The “classification of cell line” value ([2]; Leukemia K562(I) CL7005) was 2, the “classification of cell line” value ([2]; Leukemia MOLT-4 CL7006) was 2 and the “classification of cell line” value ([2]; Leukemia RPMI-8226(I) CL7010) was 3. The “classification of cell line” value ([2]; Leukemia SR CL7019) was 2, the “classification of cell line” value ([2]; Melanoma LOX IMVI CL10001) was 2 and the “classification of cell line” value ([2]; Melanoma M14 CL10014) was 2. For the same molecule, the “classification of cell line” value ([2]; Melanoma MALME-3M CL10002) was 2, the “classification of cell line” value ([2]; Melanoma SK-MEL-2 CL10005) was 1 and the “classification of cell line” value ([2]; Melanoma SK-MEL-28 CL10008) was 2. The “sensitivity classification Low(1)/Medium(2)/High(3)” value ([2]; NSCLC NCI-H23(I) CL1001) was 2, the “sensitivity classification Low(1)/Medium(2)/High(3)” value ([2]; NSCLC NCI-H332M CL1017) was 2 and the “sensitivity classification Low(1)/Medium(2)/High(3)” value ([2]; NSCLC NCI-H460 CL1021) was 3. The “sensitivity classification Low(1)/Medium(2)/High(3)” value ([2]; NSCLC NCI-H522 CL1003) was 2, the “sensitivity classification Low(1)/Medium(2)/High(3)” value ([2]; Ovarian IGROV1 CL6010) was 2 and the “sensitivity classification Low(1)/Medium(2)/High(3)” value ([2]; Ovarian OVCAR-3 CL6001) was 2. The “sensitivity classification Low(1)/Medium(2)/High(3)” value ([2]; Ovarian OVCAR-4 CL6002) was 2, the “sensitivity classification Low(1)/Medium(2)/High(3)” value ([2]; Ovarian OVCAR-5 CL6003) was 1 and the “sensitivity classification Low(1)/Medium(2)/High(3)” value ([2]; Ovarian OVCAR-8 CL6005) was 2. For the same molecule, the “sensitivity classification Low(1)/Medium(2)/High(3)” value ([2]; Ovarian SK-OV-3 CL6011) was 1, the “sensitivity classification Low(1)/Medium(2)/High(3)” value ([2]; Prostate DU-145 CL11003) was 2 and the “sensitivity classification Low(1)/Medium(2)/High(3)” value ([2]; Prostate PC-3(I) CL11001) was 2. The “sensitivity classification Low(1)/Medium(2)/High(3)” value ([2]; Renal 786-0 CL9018) was 2, the “sensitivity classification Low(1)/Medium(2)/High(3)” value ([2]; Renal A498 CL9013) was 2 and the “sensitivity classification Low(1)/Medium(2)/High(3)” value ([2]; Renal ACHN CL9023) was 2. For the same molecule, the “sensitivity classification Low(1)/Medium(2)/High(3)” value ([2]; Renal CAKI-1 CL9015) was 3, the “sensitivity classification Low(1)/Medium(2)/High(3)” value ([2]; Renal RXF-393 CL9016) was 2 and the “sensitivity classification Low(1)/Medium(2)/High(3)” value ([2]; Renal SN12C CL9008) was 2. For the same molecule, the “sensitivity classification Low(1)/Medium(2)/High(3)” value ([2]; Renal TK10 CL9024) was 1 and the “sensitivity classification Low(1)/Medium(2)/High(3)” value ([2]; Renal UO-31 CL9004) was 2.
